Drawing on patent publication US20230167114A1, “MACROCYCLIC JAK INHIBITOR AND USE THEREOF” (Biopolar Hongye (Guangdong) Pharmaceutical Co., Ltd., priority 2020, published 2023), this text covers IC50 for 15 molecules.

Structures are written as SMILES.

Common to all, as to assay type: biochemical
Experiment [1] addresses JAK1 (Homo sapiens, UniProt P23458). Briefly: JAK kinase activity, homogeneous time-resolved fluorescence (JAK1 reaction system). Particulars: ATP 2 μM, JAK1 protein 0.2 ng/μL; read-out: JAK 1 activity. As to the method: (§1) The activity measurement method of JAK kinase was to use homogeneous time-resolved fluorescence technique. The reaction was performed in 384 shallow well plates with a total reaction volume of 10 μL. The mixture of kinase protein, compound, ATP and substrate was carried out in a reaction buffer of 50 mM Hepes (pH7.0), NaN3 0.02%, BSA 0.01%, 0.1 mM orthocanadate, 5 mM MgCl2, and 1 mM DTT. After reacting for 1 hour, antibody capable of recognizing substrate phosphorylation and dye XL-615 and detection buffer (Cisbio) containing EDTA were added to the system. The reaction signal of kinase was detected by PE company's porous plate detector. The parameter settings were excitation light at 320 nm, emission light at 615 nm and 665 nm. The activity of JAK is indirectly reflected by the signal ratio of 665 nm and 615 nm. In the reaction, the background well without enzyme and the total enzyme activity well without compound were set.
(§2) The IC50 value of the compound inhibiting protein was obtained by the formula: Y=100/(1+10^((Log IC50−X)*HillSlope)).
In JAK1 reaction system, the concentration of ATP was 2 μM, and the concentration of JAK1 protein was 0.2 ng/μL.

The target of experiment [2] is JAK2 (Homo sapiens, UniProt O60674). Briefly: JAK kinase activity, homogeneous time-resolved fluorescence (JAK2 reaction system). The note with it: ATP 2 μM, JAK2 protein 0.01 ng/μL. As to the method:
as §1, §2
In JAK2 reaction system, the concentration of ATP was 2 μM, and the concentration of JAK2 protein was 0.01 ng/μL.

For experiment [3], the target named is T1, JAK3 (Homo sapiens, UniProt P52333).
T1 sequence (P52333 1-1124): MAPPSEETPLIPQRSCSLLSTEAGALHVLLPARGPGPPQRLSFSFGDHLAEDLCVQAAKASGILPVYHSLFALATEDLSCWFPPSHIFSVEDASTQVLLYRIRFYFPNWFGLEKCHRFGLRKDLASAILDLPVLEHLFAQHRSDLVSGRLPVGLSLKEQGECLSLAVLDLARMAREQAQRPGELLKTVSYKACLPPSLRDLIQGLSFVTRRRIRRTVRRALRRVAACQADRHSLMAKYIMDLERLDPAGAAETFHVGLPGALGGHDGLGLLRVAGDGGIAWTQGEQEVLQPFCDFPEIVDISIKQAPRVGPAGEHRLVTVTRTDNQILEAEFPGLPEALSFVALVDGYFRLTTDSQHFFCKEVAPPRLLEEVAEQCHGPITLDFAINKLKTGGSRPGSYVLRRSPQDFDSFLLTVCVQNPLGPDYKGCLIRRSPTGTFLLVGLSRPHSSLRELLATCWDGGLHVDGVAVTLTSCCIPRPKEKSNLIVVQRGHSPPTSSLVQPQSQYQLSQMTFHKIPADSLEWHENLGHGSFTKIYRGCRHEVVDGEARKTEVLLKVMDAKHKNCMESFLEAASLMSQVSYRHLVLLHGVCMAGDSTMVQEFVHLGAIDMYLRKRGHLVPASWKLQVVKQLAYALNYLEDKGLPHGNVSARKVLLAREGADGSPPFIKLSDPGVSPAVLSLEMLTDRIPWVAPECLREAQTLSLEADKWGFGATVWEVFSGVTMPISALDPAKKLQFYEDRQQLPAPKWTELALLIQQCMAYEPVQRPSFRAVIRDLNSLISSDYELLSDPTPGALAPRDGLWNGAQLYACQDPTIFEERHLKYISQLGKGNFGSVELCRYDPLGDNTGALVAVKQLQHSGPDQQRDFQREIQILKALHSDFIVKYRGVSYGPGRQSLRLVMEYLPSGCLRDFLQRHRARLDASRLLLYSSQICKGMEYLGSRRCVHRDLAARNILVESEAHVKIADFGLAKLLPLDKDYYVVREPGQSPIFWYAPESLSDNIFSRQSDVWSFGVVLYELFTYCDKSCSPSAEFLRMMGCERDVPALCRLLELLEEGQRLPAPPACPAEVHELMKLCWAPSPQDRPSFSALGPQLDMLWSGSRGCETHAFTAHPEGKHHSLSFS
Briefly: JAK kinase activity, homogeneous time-resolved fluorescence (JAK3 reaction system). The note with it: ATP 2 μM, JAK3 protein 0.04 ng/μL; read-out: JAK 3 activity. Here is the method: as §1, §2
In JAK3 reaction system, the concentration of ATP was 2 μM, and the concentration of JAK3 protein was 0.04 ng/μL.

Experiment [4] addresses TYK2 (Homo sapiens, UniProt P29597). Briefly: JAK kinase activity, homogeneous time-resolved fluorescence (TYK2 reaction system). Particulars: ATP 2 μM, TYK2 protein 0.2 ng/μL; read-out: TYK 2 activity. Here is the method:
as §1, §2
In TYK2 reaction system, the concentration of ATP was 2 μM and the concentration of TYK2 protein was 0.2 ng/μL.

Chain of JAK1 (P23458 whole entry): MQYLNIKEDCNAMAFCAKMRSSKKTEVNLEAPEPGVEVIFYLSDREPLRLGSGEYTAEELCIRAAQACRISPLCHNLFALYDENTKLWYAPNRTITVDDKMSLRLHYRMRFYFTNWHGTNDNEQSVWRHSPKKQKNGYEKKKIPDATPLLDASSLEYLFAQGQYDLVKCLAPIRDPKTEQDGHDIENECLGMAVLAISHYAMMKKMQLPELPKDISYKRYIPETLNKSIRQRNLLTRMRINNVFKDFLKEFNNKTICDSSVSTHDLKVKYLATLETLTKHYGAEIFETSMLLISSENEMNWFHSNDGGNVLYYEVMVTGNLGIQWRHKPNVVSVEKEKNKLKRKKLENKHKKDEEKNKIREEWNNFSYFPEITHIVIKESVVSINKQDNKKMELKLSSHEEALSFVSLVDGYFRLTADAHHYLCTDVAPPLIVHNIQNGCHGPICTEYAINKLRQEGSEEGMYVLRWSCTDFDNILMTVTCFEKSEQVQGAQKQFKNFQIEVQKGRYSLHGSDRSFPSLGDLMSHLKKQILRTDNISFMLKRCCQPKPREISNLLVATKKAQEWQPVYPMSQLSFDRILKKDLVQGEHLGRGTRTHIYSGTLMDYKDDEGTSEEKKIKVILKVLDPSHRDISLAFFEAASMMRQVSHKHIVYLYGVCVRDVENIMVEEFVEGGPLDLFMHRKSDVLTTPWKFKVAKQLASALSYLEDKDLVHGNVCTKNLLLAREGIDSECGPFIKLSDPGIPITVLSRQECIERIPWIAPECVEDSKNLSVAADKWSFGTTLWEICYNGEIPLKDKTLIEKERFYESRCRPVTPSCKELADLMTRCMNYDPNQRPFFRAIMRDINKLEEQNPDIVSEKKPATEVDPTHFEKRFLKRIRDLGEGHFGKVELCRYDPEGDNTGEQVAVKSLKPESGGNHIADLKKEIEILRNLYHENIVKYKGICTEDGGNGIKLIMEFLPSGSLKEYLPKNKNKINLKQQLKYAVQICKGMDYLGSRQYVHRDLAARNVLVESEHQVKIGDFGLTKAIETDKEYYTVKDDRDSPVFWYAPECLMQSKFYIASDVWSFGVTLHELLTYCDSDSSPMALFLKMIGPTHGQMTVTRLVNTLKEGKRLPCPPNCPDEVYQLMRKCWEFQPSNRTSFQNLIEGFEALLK
Chain of JAK2 (O60674 whole entry): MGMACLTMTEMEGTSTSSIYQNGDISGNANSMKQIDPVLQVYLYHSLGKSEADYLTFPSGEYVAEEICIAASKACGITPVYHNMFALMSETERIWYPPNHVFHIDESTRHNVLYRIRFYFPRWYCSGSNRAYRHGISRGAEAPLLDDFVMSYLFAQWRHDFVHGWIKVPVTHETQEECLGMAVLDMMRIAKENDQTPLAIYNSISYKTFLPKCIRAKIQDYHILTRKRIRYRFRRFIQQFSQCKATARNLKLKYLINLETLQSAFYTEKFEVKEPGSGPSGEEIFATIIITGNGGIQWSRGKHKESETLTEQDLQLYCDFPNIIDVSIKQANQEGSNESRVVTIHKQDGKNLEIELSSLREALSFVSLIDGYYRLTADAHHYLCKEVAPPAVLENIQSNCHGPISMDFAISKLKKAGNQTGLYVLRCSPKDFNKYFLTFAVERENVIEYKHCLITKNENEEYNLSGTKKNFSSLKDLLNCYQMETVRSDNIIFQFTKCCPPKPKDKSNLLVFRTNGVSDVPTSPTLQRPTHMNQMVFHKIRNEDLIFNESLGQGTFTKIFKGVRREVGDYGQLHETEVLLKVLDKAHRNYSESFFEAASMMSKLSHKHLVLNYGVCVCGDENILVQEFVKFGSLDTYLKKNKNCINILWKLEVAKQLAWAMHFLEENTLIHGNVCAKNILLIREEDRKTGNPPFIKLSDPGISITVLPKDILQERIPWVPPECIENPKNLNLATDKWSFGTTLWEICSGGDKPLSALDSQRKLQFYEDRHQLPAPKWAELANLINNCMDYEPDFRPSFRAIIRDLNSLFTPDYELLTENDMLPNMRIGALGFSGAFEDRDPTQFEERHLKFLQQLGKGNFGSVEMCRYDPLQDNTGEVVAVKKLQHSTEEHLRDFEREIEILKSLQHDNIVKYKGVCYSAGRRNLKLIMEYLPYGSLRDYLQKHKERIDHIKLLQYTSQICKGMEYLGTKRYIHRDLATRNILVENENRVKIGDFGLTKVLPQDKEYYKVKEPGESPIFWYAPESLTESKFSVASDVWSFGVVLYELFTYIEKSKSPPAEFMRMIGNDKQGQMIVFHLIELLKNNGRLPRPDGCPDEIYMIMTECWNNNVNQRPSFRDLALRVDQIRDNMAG
Chain of TYK2 (P29597 whole entry): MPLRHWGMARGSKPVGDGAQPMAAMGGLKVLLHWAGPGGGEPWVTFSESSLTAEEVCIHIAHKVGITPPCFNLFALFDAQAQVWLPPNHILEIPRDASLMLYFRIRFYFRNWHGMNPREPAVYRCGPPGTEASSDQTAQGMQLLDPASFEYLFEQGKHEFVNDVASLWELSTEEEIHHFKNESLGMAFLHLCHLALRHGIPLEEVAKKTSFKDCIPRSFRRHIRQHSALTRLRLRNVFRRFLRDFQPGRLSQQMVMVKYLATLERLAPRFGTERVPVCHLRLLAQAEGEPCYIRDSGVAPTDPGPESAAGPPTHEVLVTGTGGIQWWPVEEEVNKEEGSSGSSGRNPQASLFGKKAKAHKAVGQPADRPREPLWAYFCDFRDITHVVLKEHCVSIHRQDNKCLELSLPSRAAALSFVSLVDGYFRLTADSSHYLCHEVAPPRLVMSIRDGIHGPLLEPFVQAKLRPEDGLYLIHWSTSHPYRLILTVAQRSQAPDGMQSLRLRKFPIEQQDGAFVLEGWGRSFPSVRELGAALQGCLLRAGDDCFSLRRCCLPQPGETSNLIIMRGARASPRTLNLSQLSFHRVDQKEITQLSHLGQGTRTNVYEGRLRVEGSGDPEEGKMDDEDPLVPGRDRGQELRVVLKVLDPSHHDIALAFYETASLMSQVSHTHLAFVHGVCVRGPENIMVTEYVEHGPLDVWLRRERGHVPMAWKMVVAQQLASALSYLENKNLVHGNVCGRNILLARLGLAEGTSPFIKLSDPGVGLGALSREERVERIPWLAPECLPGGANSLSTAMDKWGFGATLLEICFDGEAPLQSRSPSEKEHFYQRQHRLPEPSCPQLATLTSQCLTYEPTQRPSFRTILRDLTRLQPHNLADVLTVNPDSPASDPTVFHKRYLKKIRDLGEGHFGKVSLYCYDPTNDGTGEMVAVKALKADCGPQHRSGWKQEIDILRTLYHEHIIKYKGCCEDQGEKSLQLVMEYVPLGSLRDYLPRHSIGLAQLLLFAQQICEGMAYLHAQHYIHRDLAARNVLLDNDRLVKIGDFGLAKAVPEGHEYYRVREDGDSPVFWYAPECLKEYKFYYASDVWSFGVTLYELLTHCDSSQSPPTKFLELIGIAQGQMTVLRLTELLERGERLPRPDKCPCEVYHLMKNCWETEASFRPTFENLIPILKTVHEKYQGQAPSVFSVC

With `Cc1cnc2nc1NCCCCCNC(=O)c1ccc(cc1C(=O)NCc1ccccc1)-c1cnc(F)c(c1)N2` [Compound 41, N-benzyl-2^6-fluoro-4^5-methyl-12-oxo-3,5,11-triaza-4(2,4)-pyrimidina-2(3,5)-pyridina-1(1,4)-benzenacyclododecaphane-1^3-formamide], the IC50 was 1000 to 10000 nM in experiment [1], 1000 to 10000 nM in experiment [2], 1000 to 10000 nM in experiment [3] and more than 10000 nM in experiment [4].

For the molecule `Cc1cnc2nc1Nc1cccc(c1)CCCNC(=O)c1ccc(cc1[N+](=O)[O-])-c1cnc(F)c(c1)N2` [Compound 38, 2^6-fluoro-4^5-methyl-1^3-nitro-3,5,10-triaza-4(2,4)-pyrimidina-2(3,5)-pyridina-1(1,4),6(1,3)-dibenzenacycloundecaphan-11-one], the IC50 in experiment [1] was less than 10 nM; in experiment [2] it was less than 10 nM; in experiment [3] it was 11 to 100 nM; in experiment [4], 101 to 1000 nM.

Regarding `Cc1cnc2nc1Nc1cccc(c1)CCCNC(=O)c1ccc(cc1S(C)(=O)=O)-c1cnc(F)c(c1)N2` [Compound 25, 2^6-fluoro-4^5-methyl-1^3-(methylsulfonyl)-3,5,10-triaza-4(2,4)-pyrimidina-2(3,5)-pyridina-1(1,4),6(1,3)-dibenzenacycloundecaphan-11-one], the IC50 is less than 10 nM in experiment [1], less than 10 nM in experiment [2], 11 to 100 nM in experiment [3] and 101 to 1000 nM in experiment [4].

Consider `Cc1cnc2nc1NCCCCCNC(=O)c1ccc(cc1S(C)(=O)=O)-c1cnc(F)c(c1)N2` [Compound 20, 2^6-fluoro-4^5-methyl-1^3-methylsulfonyl-3,5,11-triaza-4(2,4)-pyrimidina-2(3,5)-pyridina-1(1,4)-benzenacyclododecaphan-12-one], for which the IC50 was 11 to 100 nM in experiment [1], 1000 to 10000 nM in experiment [2], 1000 to 10000 nM in experiment [3] and more than 10000 nM in experiment [4].

Turning to `CC(=O)Nc1cc2ccc1C(=O)NCCCCCNc1nc(ncc1C)Nc1cc-2cnc1F` [Compound 43, N-(2^6-fluoro-4^5-methyl-12-oxo-3,5,11-triaza-4(2,4)-pyrimidina-2(3,5)-pyridina-1(l,4)-benzenacyclododecaphane-1^3-yl) acetamide], the IC50 in experiment [1] is 101 to 1000 nM; in experiment [2] it was 101 to 1000 nM; in experiment [3], 101 to 1000 nM; in experiment [4], more than 10000 nM.

For the molecule `Cc1cnc2nc1NCCCCCNC(=O)c1ccc(c(F)c1F)-c1cnc(F)c(c1)N2` [Compound 34, 1^2,l^3,2^6-trifluoro-4^5-methyl-3,5,11-triaza-4(2,4)-pyrimidina-2(3,5)-pyridina-1(1,4)-benzenacydododecaphan-12-one], the IC50 was 101 to 1000 nM in experiment [1], 101 to 1000 nM in experiment [2], 101 to 1000 nM in experiment [3] and more than 10000 nM in experiment [4].

Regarding `Cc1cnc2nc1NCCCCCNC(=O)c1ccc(cc1N)-c1cnc(F)c(c1)N2` [Compound 9, 1^3-amino-2^6-difluoro-4^5-methyl-3,5,11-triaza-4(2,4)-pyrimidina-2(3,5)-pyridina-1(1,4)-benzenacyclododecaphan-12-one], the IC50 lay within 101 to 1000 nM in experiment [1], 101 to 1000 nM in experiment [2], 1000 to 10000 nM in experiment [3] and 1000 to 10000 nM in experiment [4].

As for `Cc1cnc2nc1NCCCCCNC(=O)c1ccc(cc1C(=O)Nc1ccccc1)-c1cnc(F)c(c1)N2` [Compound 42, 2^6-fluoro-4^5-methyl-12-oxo-N-phenyl-3,5,11-triaza-4(2,4)-pyrimidina-2(3,5)-pyridina-1(1,4)-benzenacyclododecaphane-1^3-formamide], the IC50 is 1000 to 10000 nM in experiment [1], 1000 to 10000 nM in experiment [2], 1000 to 10000 nM in experiment [3] and more than 10000 nM in experiment [4].

Consider `Cc1cnc2nc1Nc1ccc(F)c(c1)CCNC(=O)c1ccc(cc1S(C)(=O)=O)-c1cnc(F)c(c1)N2` [Compound 27, 2^6,6^4-difluoro-4^5-methyl-1^3(methylsulfonyl)-3,5,9-triaza-4(2,4)-pyrimidina-2(3,5)-pyridina-1(1,4),6(1,3)-dibenzenacyclodecaphan-10-one], for which the IC50 was 11 to 100 nM in experiment [1], 101 to 1000 nM in experiment [2], 101 to 1000 nM in experiment [3] and more than 10000 nM in experiment [4].

Consider `Cc1cnc2nc1NCCCCCNC(=O)c1ccc(cc1F)-c1cnc(F)c(c1)N2` [Compound 6, 1^3,2^6-difluoro-4^5-methyl-3,5,11-triaza-4(2,4)-pyrimidina-2(3,5)-pyridina-1(1,4)-benzenacyclododecaphan-12-one], for which the IC50 lay within 11 to 100 nM in experiment [1], 101 to 1000 nM in experiment [2], 101 to 1000 nM in experiment [3] and 1000 to 10000 nM in experiment [4].

As for `Cc1cnc2nc1NCCCCCNC(=O)c1ccc(c(F)c1)-c1cnc(F)c(c1)N2` [Compound 3, 1^2,2^6-difluoro-4^5-methyl-3,5,11-triaza-4(2,4)-pyrimidina-2(3,5)-pyridina-1(1,4)-benzenacyclododecaphan-12-one], the IC50 was 11 to 100 nM in experiment [1], 11 to 100 nM in experiment [2], 101 to 1000 nM in experiment [3] and 1000 to 10000 nM in experiment [4].

Consider `O=C1NCCOCc2cccc(c2)Nc2nc(ncc2F)Nc2cc(cnc2F)-c2ccc1cc2` [Compound 16, 2^6,4^5-difluoro-oxa-3,5,11-triaza-4(2,4)-pyrimidina-2(3,5)-pyridina-1(1,4),6(1,3)-dibenzenacyclododecaphan-12-one], for which the IC50 lay within 11 to 100 nM in experiment [1], 11 to 100 nM in experiment [2], 11 to 100 nM in experiment [3] and 1000 to 10000 nM in experiment [4].

Consider `Cc1cnc2nc1Nc1ccccc1CCCNC(=O)c1ccc(cc1F)-c1cnc(F)c(c1)N2` [Compound 32, 1^3,2^6-difluoro-4^5-methyl-3,5,10-triaza-4(2,4)-pyridina-1(5,2),2(3,5)-dipyridina-6(1,2)-benzenacycloundecaphan-11-one], for which the IC50 in experiment [1] fell in the range of 11 to 100 nM; in experiment [2] it was 11 to 100 nM; in experiment [3] it was 101 to 1000 nM; in experiment [4] it was 1000 to 10000 nM.

In the case of `Cc1cnc2nc1Nc1cccc(c1)CCCNC(=O)c1ccc(cc1)-c1cnc(F)c(c1)N2` [Compound 17, 2^6-fluoro-4^5-methyl-3,5,10-triaza-4(2,4)-pyrimidina-2(3,5)-pyridina-1(1,4),6(1,3)-dibenzenacycloundecaphan-11-one], the IC50 in experiment [1] was less than 10 nM; in experiment [2] it was less than 10 nM; in experiment [3], 11 to 100 nM; in experiment [4] it was 11 to 100 nM.

With `Cc1cnc2nc1Nc1cccc(c1)CCCNC(=O)c1ccc(cc1F)-c1cnc(F)c(c1)N2` [Compound 23, 1^3,2^6-difluoro-4^5-methyl-3,5,10-triaza-4(2,4)-pyrimidina-2(3,5)-pyridina-1(1,4),6(1,3)-dibenzenacycloundecaphan-11-one], the IC50 in experiment [1] is less than 10 nM; in experiment [2], less than 10 nM; in experiment [3], 101 to 1000 nM; in experiment [4], 101 to 1000 nM.
